Laboratory results reported in patent US20050072047A1, “Tobacco having reduced nicotine and nitrosamines” (priority 2002, published 2005).
Where two headings read alike, the source gives them in different places.

Experiments:
[1] = tested on: tobacco plants; test: Nicotine and TSNA levels of field tobacco plants contacted with the compound, versus untreated plants; type: in vivo; details: compared to untreated tobacco plants
Experimental: To reduce the level of nicotine and/or nitrosamine in a cultivated crop or field of tobacco, a concentrated solution of 2,4-D in water (e.g., a 10% solution) with the wetting agent “Agral 60” (e.g., a 0.0006% v/v miscible oil emulsion) is prepared. A control solution containing the wetting agent without 2,4-D is also prepared. These solutions are diluted to 0.1, 1, 10, or 100 ppm of 2,4-D in the final spray solution. Control and experimental fields of tobacco (e.g., Burley, Virginia Flue, and Oriental varieties in separate test plots cultivated by conventional techniques for the particular varieties) at various ages of maturity (some of which have been topped) are sprayed with parallel dilutions of the wetting agent alone. Plants are then sprayed with the above solutions to the dripping-off point. Plants are allowed to continue growing normally for 14 days. Plants are then harvested and sample leaves (from the same position on the plants of the same age) are quick-frozen using liquid nitrogen. Nicotine levels are measured on these sample leaves using standard techniques.
A quick drying curing technique or a conventional curing technique particular to the variety being tested is employed to obtain cured leaves (non-green or yellow dried leaves). Conventional TSNA analysis is then performed on the cured leaves and stems and/or portions thereof (e.g., lamina and midrib of the leaf). By following this approach, the amount of 2,4-D to apply to a specific variety of tobacco, for a specific age of plant (topped or not topped) in the field to achieve a reduced nicotine and/or nitrosamine level is readily determined. In the following example, ethylene precursors, such as ethephon, are used to decrease jasmonate-induced nicotine and/or nitrosamine levels in tobacco.

[2] = tested on: tobacco plants; details: early flowering stage; Fung et al. 1973; cited from earlier work
[3] = tested on: lipoxygenase; details: potato; Kolomiets et al. 2001; cited from earlier work
[4] = tested on: lipoxygenase; details: soybean; Creelman 1992; cited from earlier work
[5] = tested on: jasmonic acid levels in plants; details: Schweizer et al. 1997; cited from earlier work

For `O=C(O)COc1ccc(Cl)cc1Cl` [2,4-D, 2,4-Dichlorophenoxyacetic acid], the “level of TSNAs in treated tobacco plants” value [1] is listed as “reduced levels”, the “level of nicotine in treated tobacco plants” value (“level of nicotine” for short) [1] is listed as “reduced levels” and the “harm to tobacco plants” value [2] is listed as “most harmful to tobacco plants during the early flowering stage”.
In the case of `COc1ccc2cc([C@H](C)C(=O)O)ccc2c1` [Naproxen], the “effect on lipoxygenase activity” value [3] is given as “inhibit lipoxygenase activity” and the “effect on lipoxygenase activity” value [4] is given as “inhibit lipoxygenase activity”.
For `O=C(O)c1ccccc1O` [salicylic acid, 2-hydroxybenzoic acid], the “level of TSNAs in treated tobacco plants” value [1] was “reduced amount” and the “level of nicotine” value [1] was “reduced amount”.
For `Clc1ccc(N2N=N[C@@H]3[C@@H]4C[C@@H]([C@H]5N=N[C@@H]45)[C@@H]32)cc1` [tetcyclacis], the “effect on jasmonic acid levels in plants” value [5] is listed as “inhibit jasmonic acid levels”, the “level of TSNAs in treated tobacco plants” value [1] is listed as “reduced amount” and the “level of nicotine” value [1] is listed as “reduced amount”.
